Results as given in patent US8530491B2, “Antimalarial compounds with flexible side-chains” (Medicines for Malaria Venture (MMV), priority 2007, dated 2013).
Values after ≈ are worked out from the molar mass of the structure shown. Like-named read-outs stand apart in the source and are kept apart here.

What was measured:
P. chabaudi AS [1] = experiment: Standard 4-day Peters' test against P. chabaudi AS in mice; assay type: in vivo, Plasmodium chabaudi; conditions: for ED50 / ED90: Plasmodium chabaudi, 96 h, oral, 4-day Peters' test; for ED50: 50% reduction in parasitaemia; for ED90: 90% reduction in parasitaemia; for ED90 P. chabaudi AS, oral: oral administration, mice (Table 1)
Method: (§1) Briefly, 20 gr CD1 male mice (Charles Rivers, UK) were kept in specific pathogen-free conditions and fed ad libitum. For oral administration, compounds were dissolved in standard suspending formula (SSV) [0.5% sodium carboxymethylcellulose, 0.5% benzyl alcohol, 0.4% Tween 80, 0.9% NaCl (all Sigma)] and for intraperitoneal or subcutaneous administration compounds were dissolved in 0.5% w/v hydroxypropylmethylcellulose, 0.4% v/v Tween 80, 0.5% V/v benzyl alcohol in de-ionised water]. Mice were infected intravenously with 4×10^6 infected red cells and treated orally (p.o.) with 0.2 ml of a solution of the test compounds two hours (day 0) and on days 1, 2 and 3 post-infection. Parasitaemia was determined by microscopic examination of Giemsa stained blood films taken on day 4. Microscopic counts of blood films from each mouse were processed using GraphPad Prism 4 (GraphPad Software, Inc., CA, USA) and expressed as percentages of inhibition from the arithmetic mean parasitaemias of each group in relation to the untreated group. Compounds were tested in an initial screening at 30 mg/kg/day against P. chabaudi AS (non-resistant) over the period described and percentages of inhibition calculated in relation to the untreated controls. Compounds giving 80% inhibition or above were then tested in the same model under a range of doses over the period described in order to obtain dose response curves and calculate their ED50 and ED90 values. […] From the ED90 values is clear that a number of compounds have exquisite activity in this model and are also tested in P. chabaudi ASP and P. berghei ANKA.

S. aureus = experiment: Antibacterial activity, minimal inhibitory concentration on agar plates; assay type: cell-based; conditions: Staphylococcus aureus; complete inhibition of growth on agar plates
E. coli = experiment: as above; assay type: cell-based; conditions: Escherichia coli; complete inhibition of growth on agar plates
Pf DHFR WT = biological target: T1, Pf DHFR WT (Plasmodium falciparum, UniProt A7UD81); experiment: Pf DHFR enzyme inhibition (Ki), wild type; assay type: biochemical
T1 construct: made in house; host or cells: E. coli BL21(DE3)pLysS

[2] = biological target: T2, Pf DHFR N51I + C59R + S108N + I164L (Plasmodium falciparum, UniProt A7UD81, C59R/I164L/N51I/S108N); experiment: biochemical
T2 construct: made in house; host or cells: E. coli BL21(DE3)pLysS

[3] = tested on: P. falciparum TM4/8.2 (wild type); experiment: In vitro anti-plasmodial activity, [3H]-hypoxanthine incorporation; assay type: cell-based, Plasmodium falciparum
[4] = Cytotoxicity in mammalian cells; assay type: cell-based; conditions: African green monkey, Vero cells (African green monkey kidney epithelial cells)
[5] = Oral bioavailability and pharmacokinetics in male Sprague Dawley rats; assay type: in vivo; conditions: for Oral BA: i.v. and oral dosing; for Vd / clearance / half-life: rat, plasma; for Vd: intravenous; for clearance / half-life: iv, i.v. dosing; for clearance: read-out: i.v. CL(plasma); for half-life: read-out: i.v. t1/2 (converted)
Method: Rats had free access to water throughout the pre- and post-dose sampling period, and access to food was re-instated 4 hours post-dosing. Test compounds were administered intravenously as a 5 minute constant rate infusion (1.0 mL per rat) and orally by gavage (1.0 mL per rat). The IV formulations were typically buffered aqueous solutions containing a co-solvent if required for solubilization. The oral formulations were prepared as suspensions in hydroxypropylmethyl cellulose or carboxymethyl cellulose, each with the addition of Tween 80 and benzyl alcohol. Samples of arterial blood and total urine were collected up to 24 hours post-dose. Arterial blood was collected directly into borosilicate vials (at 4° C.) containing heparin, a protease inhibitor cocktail, potassium fluoride, and EDTA to minimise the potential for ex vivo degradation of the test compound in blood/plasma samples. Once collected, blood samples were centrifuged, supernatant plasma was removed and stored at −20° C., and plasma concentrations of test compound were determined by LCMS.

P. falciparum Wild Type = experiment: Anti-malarial activity against P. falciparum in vitro, wild type (Table 1); assay type: cell-based, Plasmodium falciparum
[6] = tested on: P. falciparum Resistant mutant; experiment: Anti-malarial activity against P. falciparum in vitro, resistant mutant (Table 1); assay type: cell-based, Plasmodium falciparum; conditions: read-out: IC50 against P. falciparum in vitro, Resistant mutant
P. chabaudi ASP = experiment: Standard 4-day Peters' test against P. chabaudi ASP (pyrimethamine-resistant) in mice; assay type: in vivo, Plasmodium chabaudi
Method: as §1

P. berghei ANKA = experiment: Standard 4-day Peters' test against P. berghei ANKA in mice; assay type: in vivo, Plasmodium berghei; conditions: oral, lethal non-resistant strain
Method: as §1

[7] = rat, in vivo
P. chabaudi AS [8] = experiment: Standard 4-day Peters' test against P. chabaudi AS in mice; assay type: in vivo, Plasmodium chabaudi; conditions: s.c. administration, mice (Table 1)
[9] = Pharmacokinetics of P218 / pro-drug P195 in male Swiss outbred mice; assay type: in vivo
Method: In a separate study, the oral bioavailability of P195, the ester pro-drug of P218 which contains a carboxylic acid side chain was investigated in mice. Male Swiss outbred mice were administered P218 (the free acid) intravenously by bolus tail vein injection at a nominal dose of 5 mg/kg and P195 (the ester pro-drug) orally by gavage at a nominal dose of 20 mg/kg. […] Blood sampling was conducted by cardiac puncture with a single sample per mouse, and two mice per time point over 16 hours post dosing. Blood samples were separated and plasma analyzed by LCMS as described above. The plasma concentration versus time profiles for P218 following IV administration of P218 and following oral administration of the pro-drug P195 are shown in FIG. 9. Plasma concentrations of P218 remained above the lower limit of quantitation (LLQ=0.0014 μM) for 7.5 h following IV administration.

[10] = Plasmodium falciparum, read-out: IC50-P. falciparum TM4/8.2 (WT), TM4/8.2

T2 sequence (A7UD81 whole entry N51I/C59R/S108N/I164L): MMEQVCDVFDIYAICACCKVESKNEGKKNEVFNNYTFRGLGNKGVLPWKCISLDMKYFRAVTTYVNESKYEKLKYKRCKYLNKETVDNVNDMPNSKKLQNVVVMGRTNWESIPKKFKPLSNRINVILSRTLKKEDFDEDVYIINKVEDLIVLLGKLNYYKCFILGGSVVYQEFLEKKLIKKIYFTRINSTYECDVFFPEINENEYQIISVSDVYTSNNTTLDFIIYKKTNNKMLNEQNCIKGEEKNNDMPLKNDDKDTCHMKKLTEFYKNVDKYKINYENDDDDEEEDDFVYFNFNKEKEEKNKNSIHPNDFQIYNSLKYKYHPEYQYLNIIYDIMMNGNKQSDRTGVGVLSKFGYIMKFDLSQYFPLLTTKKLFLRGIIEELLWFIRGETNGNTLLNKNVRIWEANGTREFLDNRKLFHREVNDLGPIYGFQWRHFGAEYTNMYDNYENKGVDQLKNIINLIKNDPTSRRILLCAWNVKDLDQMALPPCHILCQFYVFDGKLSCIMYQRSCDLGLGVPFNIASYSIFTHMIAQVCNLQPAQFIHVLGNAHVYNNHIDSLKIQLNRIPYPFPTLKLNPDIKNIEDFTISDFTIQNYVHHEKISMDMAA
T1 sequence (A7UD81 1-608): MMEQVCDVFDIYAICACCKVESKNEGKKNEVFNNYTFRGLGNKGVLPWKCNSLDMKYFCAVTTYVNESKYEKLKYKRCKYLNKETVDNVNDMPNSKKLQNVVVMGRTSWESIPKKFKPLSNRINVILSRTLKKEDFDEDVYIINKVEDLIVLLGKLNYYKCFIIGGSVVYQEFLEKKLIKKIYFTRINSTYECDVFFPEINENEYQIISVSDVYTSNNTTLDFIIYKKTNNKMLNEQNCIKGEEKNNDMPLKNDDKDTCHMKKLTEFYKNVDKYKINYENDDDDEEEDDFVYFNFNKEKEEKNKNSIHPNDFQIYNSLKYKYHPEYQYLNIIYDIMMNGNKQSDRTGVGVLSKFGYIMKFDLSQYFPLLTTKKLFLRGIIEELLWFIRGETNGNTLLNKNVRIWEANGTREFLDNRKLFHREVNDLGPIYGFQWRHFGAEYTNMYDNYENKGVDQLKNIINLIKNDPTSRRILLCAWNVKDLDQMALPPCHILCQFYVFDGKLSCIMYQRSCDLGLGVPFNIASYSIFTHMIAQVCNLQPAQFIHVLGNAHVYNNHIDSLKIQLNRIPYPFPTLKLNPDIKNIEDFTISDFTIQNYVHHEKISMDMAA

Row | Structure (SMILES) | ED50 (P. chabaudi AS [1]) [mg/kg] | ED90 (P. chabaudi AS [1]) [mg/kg] | MIC (S. aureus) [µM] | MIC (E. coli) [µM] | Ki (Pf DHFR WT) [nM] | Ki [2] [nM] | IC50 [3, 10] [nM] | IC50 [4] [nM] | further results
1 | CCc1nc(N)nc(N)c1OCCCOc1cc(C)nc2ccccc12 [Compound P154, 2,4-diamino-6-ethyl-5-(3-(2-methylquinolin-4-yloxy)propoxy)pyrimidine] | 0.006 | 0.043 | > 50 | 10 to 50 (≈ 3.53 to 17.7 µg/mL) | 1.29 ± 0.14 | 4.8 ± 0.36 | 2 ± 0.8 | 94 | Oral BA [5]: 9.3 % of dose; Vd [5]: 8.8 L/kg; clearance [5]: 84.1 mL/min/kg; half-life [5]: 3.2 h
2 | CCc1nc(N)nc(N)c1-c1ccc(Cl)cc1 [Pyrimethamine, pyrimethamine, reference compound] | 0.25 | 0.88 | > 50 | > 50 | – | – | 58 ± 30 | – | IC50 (P. falciparum Wild Type; Plasmodium falciparum): 79 nM; IC50 ([6]; Plasmodium falciparum): > 100000 nM; ED90 P. chabaudi AS, oral (P. chabaudi AS [1]): 0.88 mg/kg; ED50 (P. chabaudi ASP; Plasmodium chabaudi, po, read-out: ED50 P. chabaudi ASP): 1.8 mg/kg; ED90 P. chabaudi ASP (P. chabaudi ASP; oral, pyrimethamine-resistant strain): 13.5 mg/kg; ED50 (P. berghei ANKA; Plasmodium berghei): 0.5 mg/kg; ED90 P. berghei ANKA (P. berghei ANKA): 3.2 mg/kg; Oral BA in rats [7]: ~100%; ED90 P. chabaudi AS, s.c. (P. chabaudi AS [8]): 0.25 mg/kg
3 | CCOC(=O)CCc1ccccc1OCCCOc1c(N)nc(N)nc1CC [Compound P195, 2,4-diamino-6-ethyl-5-(3-(2-(2-ethoxycarbonylethyl)phenoxy)propoxy)pyrimidine] | 0.21 | 0.69 | – | – | 0.26 ± 0.02 | 1.88 ± 0.13 | 2.5 ± 0.7 | 1250 | plasma concentrations of the pro-drug P195 ([9]; oral P195 20 mg/kg, all time points, below lower limit of quantitation): < 1.4 nM
4 | COc1cc(Cc2cnc(N)nc2N)cc(OC)c1OC [Trimethoprim, trimethoprim, reference compound] | – | – | 1 to 10 (≈ 0.29 to 2.9 µg/mL) | 1 to 10 (≈ 0.29 to 2.9 µg/mL) | – | – | – | – | –
5 | CC1(C)N=C(N)N=C(N)N1c1ccc(Cl)cc1 [Cycloguanil, cycloguanil] | – | – | – | – | – | – | – | – | IC50 (P. falciparum Wild Type; Plasmodium falciparum): 37 nM; IC50 ([6]; Plasmodium falciparum): > 100000 nM; ED90 P. chabaudi AS, oral (P. chabaudi AS [1]): 6.2 mg/kg; Oral BA in rats [7]: 59.3%; ED90 P. chabaudi AS, s.c. (P. chabaudi AS [8]): 3.7 mg/kg
6 | CCc1nc(N)nc(N)c1OCCCOc1cc(C)nc2ccc(OCCCC(=O)O)cc12 [Compound P169, 2,4-diamino-6-ethyl-5-(3-(6-(3-carboxypropoxy)-2-methylquinolin-4-yloxy)propoxy)pyrimidine] | > 29 | > 29 | – | – | 0.15 ± 0.04 | 0.36 ± 0.01 | 0.22 ± 0.06 | 420 | IC50 ([3]; read-out: IC50-P. falciparum TM4/8.2 (WT), TM4/8.2): 0.3 ± 0.1 nM
7 | CCc1nc(N)nc(N)c1OCCCOc1ccccc1CCC(=O)O [Compound P218, 2,4-diamino-6-ethyl-5-(3-(2-(2-carboxyethyl)phenoxy)propoxy)pyrimidine] | < 0.63 | < 0.63 | – | – | 0.43 ± 0.07 | 0.54 ± 0.12 | 6 | > 10000 | time plasma concentration of P218 remained above LLQ following oral administration of ester prodrug ([9]; P195 oral 20 mg/kg, mice, LLQ=0.0014 μM): 16 h; time plasma concentrations of P218 remained above LLQ following IV administration ([9]; P218 IV 5 mg/kg, mice, LLQ=0.0014 μM): 7.5 h; bioavailability ([9]; male, Swiss outbred, mouse, plasma, oral, 20 mg/kg): ~50%
8 | CCc1nc(N)nc(N)c1OCCCOc1cc(C)nc2cc(F)ccc12 [Compound P157, 2,4-diamino-6-ethyl-5-(3-(7-fluoro-2-methylquinolin-4-yloxy)propoxy)pyrimidine] | 0.008 | 0.012 | > 25 | > 25 | 1.26 ± 0.24 | 3.95 ± 0.06 | 2.4 ± 0.7 | 100 | Oral BA [5]: 25.5 % of dose; Vd [5]: 15.2 L/kg; clearance [5]: 74.7 mL/min/kg; half-life [5]: 17.6 h
9 | CCOC(=O)CCCOc1ccc2nc(C)cc(OCCCOc3c(N)nc(N)nc3CC)c2c1 [Compound P219, 2,4-diamino-6-ethyl-5-(3-(6-(3-ethoxycarbonylpropoxy)-2-methylquinolin-4-yloxy)propoxy)pyrimidine] | > 5 | > 5 | – | – | 0.52 ± 0.08 | 1.25 ± 0.22 | < 10 | – | –
10 | CCN(CC)CCCC(C)Nc1ccnc2cc(Cl)ccc12 (centres unmarked) [Chloroquine, chloroquine, reference compound] | – | – | – | – | – | – | – | – | IC50 ([3]; Plasmodium falciparum, read-out: IC50-P. falciparum TM4/8.2 (WT)): 27 nM
11 | C[C@H]1[C@@H](O)O[C@@H]2O[C@@]3(C)CC[C@H]4[C@H](C)CC[C@@H]1[C@@]24OO3 [Dihydroartemisinin, reference compound] | – | – | – | – | – | – | – | – | IC50 ([3]; Plasmodium falciparum, read-out: IC50-P. falciparum TM4/8.2 (WT), TM4/8.2, listed as printed in nM): 1.69 ± 0.39 nM
12 | CCOC(=O)CCCOc1ccccc1OCCCOc1c(N)nc(N)nc1CC [Compound P217, 2,4-diamino-6-ethyl-5-(3-(2-(3-ethoxycarbonylpropoxy)phenoxy)propoxy)pyrimidine] | < 0.63 | < 0.63 | – | – | 0.69 ± 0.1 | 3.3 ± 0.52 | 4 | 5330 | –
13 | CCc1nc(N)nc(N)c1OCCCOc1ccnc2ccc(F)cc12 [Compound P153, 2,4-diamino-6-ethyl-5-(3-(6-fluoro-quinolin-4-yloxy)propoxy)pyrimidine] | 0.006 | 0.013 | 10 to 50 (≈ 3.57 to 17.9 µg/mL) | 10 to 50 (≈ 3.57 to 17.9 µg/mL) | 1.41 ± 0.13 | 3.41 ± 0.27 | 0.25 ± 0.1 | 37 | Oral BA [5]: 26 % of dose; Vd [5]: 17.3 L/kg; clearance [5]: 69.6 mL/min/kg; half-life [5]: 15.7 h
14 | CC1(C)N=C(N)N=C(N)N1OCCCOc1cc(Cl)c(Cl)cc1Cl [WR99210] | – | – | – | – | – | – | – | – | IC50 (P. falciparum Wild Type; wild type): 0.6 nM; IC50 ([6]; resistant mutant): 18 nM; ED90 P. chabaudi AS, oral (P. chabaudi AS [1]): 74.2 mg/kg; Oral BA in rats [7]: <1%; ED90 P. chabaudi AS, s.c. (P. chabaudi AS [8]): 1.1 mg/kg
